Patent US8927718B2, “Fused heterocyclic ring derivative and use thereof” (Takeda Pharmaceutical Company Limited, priority 2009, dated 2015)

Molecular target: T1, Smo (Mus musculus, UniProt P56726)
T1 construct: endogenous in cells; host or cells: NIH-3T3 cells stably carrying the Gli luciferase reporter
Test: Gli reporter luciferase assay in NIH-3T3/Gli reporter cells stimulated with mouse Shh-N end fragment
Format: cell-based
Settings: NIH3T3, 1 μM compound, mouse Shh-N end fragment supernatant, 48 hr, luciferase activity, control without compound as 100, read-out: inhibitory rate (%) at 1 μM
Description: Gli reporter plasmid was constructed by inserting 8× Gli-binding site and chicken δ-crystalline promoter into the upstream of luc+ of pGL3 (Promega).
HEK293 cells were grown in D-MEM medium (Invitrogen) containing 10% fetal bovine serum in a 10 cm dish and pcDNA3.1/mShh-N was introduced into the cells using FuGENE6 (Roche Applied Science). Thereafter, the HEK293 cells were cultured in a carbon dioxide gas incubator at 37° C. for 24 hours, and the medium was exchanged with D-MEM medium (Invitrogen) containing 2% fetal bovine serum. After culturing for 48 hr, a culture supernatant containing recombinant type mouse Shh-N end fragment was obtained by filtration using a filter ([…]).
Using D-MEM (Invitrogen) containing 10% fetal bovine serum, expression plasmid pcDNA3.1 and Gli reporter plasmid (pGL3/δ-cry promoter, 8× Gli binding site) produced by the method of Experimental Example 1 were introduced into NIH-3T3 cells grown in a 10 cm dish by the use of FuGENE6 (Roche Applied Science).
After culture for 24 hr, the cells were recovered, suspended in D-MEM medium containing 10% fetal bovine serum and supplemented with Geneticin (Life Technologies Oriental, Inc.) to a final concentration of 500 μg/ml, diluted to 10^4 cells/ml, plated on a 96 well plate, and cultured in a carbon dioxide gas incubator at 37° C. to give Geneticin resistant transformed cell line. […]
NIH-3T3/Gli reporter cells cultured in D-MEM (Invitrogen) containing 10% fetal bovine serum were plated in a 96 well white plate at 1×10^4 cells/well, and cultured overnight in a carbon dioxide gas incubator at 37° C. […] Bright-Glo (Promega, 50 μl) was added, and the mixture was stirred, after which luciferase activity was measured by EnVision (PerkinElmer). The inhibition rate was calculated based on the luciferase activity of the control without addition of the compound as 100.

T1 sequence (P56726 33-793): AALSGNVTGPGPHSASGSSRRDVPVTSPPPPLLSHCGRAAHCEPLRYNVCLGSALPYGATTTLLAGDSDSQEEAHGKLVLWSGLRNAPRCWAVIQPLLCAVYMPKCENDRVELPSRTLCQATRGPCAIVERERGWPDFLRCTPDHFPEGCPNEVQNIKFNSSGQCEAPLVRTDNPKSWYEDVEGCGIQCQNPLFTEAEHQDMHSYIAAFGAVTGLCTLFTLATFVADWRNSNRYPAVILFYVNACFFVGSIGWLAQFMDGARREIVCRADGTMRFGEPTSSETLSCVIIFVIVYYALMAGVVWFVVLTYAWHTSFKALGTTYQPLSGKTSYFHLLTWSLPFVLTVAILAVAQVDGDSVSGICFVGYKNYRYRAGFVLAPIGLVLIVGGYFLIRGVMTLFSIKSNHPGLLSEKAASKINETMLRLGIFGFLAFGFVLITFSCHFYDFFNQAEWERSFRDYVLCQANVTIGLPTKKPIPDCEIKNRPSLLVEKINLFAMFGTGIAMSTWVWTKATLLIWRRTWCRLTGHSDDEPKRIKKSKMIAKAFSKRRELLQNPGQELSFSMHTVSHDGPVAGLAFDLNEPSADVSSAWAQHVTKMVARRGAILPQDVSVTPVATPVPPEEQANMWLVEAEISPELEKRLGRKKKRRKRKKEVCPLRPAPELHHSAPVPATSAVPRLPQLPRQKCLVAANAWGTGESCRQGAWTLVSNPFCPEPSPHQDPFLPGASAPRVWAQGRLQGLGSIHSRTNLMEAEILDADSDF

Compound	inhibition at 1 µM [%]
CCc1c(C(=O)NC2CCN(C(=O)CO)CC2)n(C)c2cc(CC)n(CC(=O)c3ccccc3)c(=O)c12 [Example 1, 3,6-diethyl-N-[1-(hydroxyacetyl)piperidin-4-yl]-1-methyl-4-oxo-5-(2-oxo-2-phenylethyl)-4,5-dihydro-1H-pyrrolo[3,2-c]pyridine-2-carboxamide]	100
C=Cc1c(C(=O)NC2CCN(C(=O)CO)CC2)n(C)c2cc(CC)n(CC(=O)c3ccccc3)c(=O)c12 [Example 2, 3-ethenyl-6-ethyl-N-[1-(hydroxyacetyl)piperidin-4-yl]-1-methyl-4-oxo-5-(2-oxo-2-phenylethyl)-4,5-dihydro-1H-pyrrolo[3,2-c]pyridine-2-carboxamide]	100
CCNc1c(C(=O)NC2CCN(C(=O)CO)CC2)n(C)c2cc(CC)n(CC(=O)c3ccccc3)c(=O)c12 [Example 32, 6-ethyl-3-(ethylamino)-N-[1-(hydroxyacetyl)piperidin-4-yl]-1-methyl-4-oxo-5-(2-oxo-2-phenylethyl)-4,5-dihydro-1H-pyrrolo[3,2-c]pyridine-2-carboxamide]	98
